Test results as given in patent US20260232699A1, “COMPOSITIONS OF A CANNABINOID AND A KINASE INHIBITOR FOR THE TREATMENT OF CANCER” (SINOVEDA CANADA INC., priority 2023, published 2026).
Values after ≈ are worked out from the molar mass of the structure shown.

Key:
[1] = cited from earlier work
HepG2 cells [2] = experiment: HepG2 cell proliferation assay (XTT); assay type: cell-based, human; details: IMDM media with 20% FBS and 1% ethanol, read-out: predetermined IC50 concentrations
Procedure: HepG2 cells were obtained from the American Type Culture Collection (ATCC). Normal hepatocyte pool of cells was acquired from Xenotech. Cryopreserved cells in DMEM containing 5% DMSO were thawed and diluted 10-fold in phenol red free DMEM media containing 10% fetal bovine serum, 100 μg/ml penicillin/streptomycin, supplemented with Glutamax™ and sodium pyruvate. Subsequently, cells were centrifuged at 20 g for 10 minutes. The cells were resuspended in the same media with added Revitacell® to a concentration of […]. Ninety-six well cell culture treated flat bottom plates were seeded with 7.5×10^3 cells in 100 μl and incubated at 37° C., 7.5% CO2, >95% relative humidity for 18 hours to allow cellular adhesion after which media was replaced with like media (DMEM, IMDM, Williams E) containing 1 to 20% FBS and various test compounds (10 μg/ml to 100 ng/ml). After 48 hours (2 doublings of cells), sodium; 2-(2-methoxy-4-nitro-5-sulfonatophenyl)-3-(2-methoxy-4-nitro-5-sulfophenyl)-N-phenyltetrazol-3-ium-5-carboximidate (XTT) (300 μg/ml) was added, and cells incubated for 2 hours. Formazan production was measured at 450 nm on a Varioskan lux spectrophotometer. Non-specific absorption was measured at 660 nm and subtracted from the reference measurement at 450 nm. Experiments were performed in triplicates (n=3). […]
The objectives of this example are to, first, establish the procedure of a two-component interaction study; and second, establish a method of analysis to identify potential interactions among the two components/compounds. […] Following 48 hours of incubation, the IC50 values of various mixtures were obtained and compared with the pure compound's IC50 values and predicted/calculated IC50 values for the various mixtures. […]
Samples from the serial dilutions were analyzed by LC-MS/MS to orthogonally confirm concentrations. […]
To assess potential interactions, the IC50 values for individual cannabinoids in the control lanes were calculated and used to predict and IC50 value for the summation of their individual components.

HepG2 cells [3] = experiment: rtPCR gene expression analysis (TaqMan array card); assay type: cell-based, human
Procedure: Target cancer gene pathways were analyzed using a custom Taqman® array card exploring 90 unique genes associated with cancer related pathways (Kanehisa, Goto et al. 2010).
Two million HepG2 cells in IMDM media with 20% FBS, and 1% ethanol were seeded in T75 flasks and incubated at 37° C., 7.5% CO2 until 70-80% confluent (approx. […]). […] Untreated cells were included as a negative control. Glyceraldehyde-3-phosphate dehydrogenase (GAPDH) was included as an endogenous control and used for normalization of the data.
Following a 6-hour incubation with the test compounds, the RNA was extracted using Invitrogen's Dynabead mRNA DIRECT kit using the recommended protocol to provide 50 μL of a purified mRNA solution. Fifty μL of RT master mix was mixed into the mRNA solution and the mixture left to react at 37° C. for 60 minutes. Reverse transcriptase inactivation was performed at 95° C. for 5 minutes and the resulting cDNA samples were kept at 4° C. until use. Fifty-five microliters of TaqMan Fast Advance master mix were added to an equal amount of cDNA sample containing 1 μg/100 μl of cDNA, which was loaded into each card reservoir. The cards were centrifuged twice at 1200 RPM for 3 minutes in a Legend XFR centrifuge and the rtPCR reaction was conducted in a QuantStudio7 PCR instrument using the recommended settings with 40 amplification cycles. Data processing was done using ThermoFisher's Connect™ application.

PDX tumor model (575) = experiment: In vivo PDX model with drug-loaded nanonails; parameters: species or system NCG mice; details: intra-tumoral nanonail, 72 hours
Procedure: Drug candidates were mixed with FITC-labeled PEG-5000 with a milligram ratio of 2:8 in a suitable solvent and lyophilized to dryness. Samples of the resultant mixtures (10 mg) were loaded into nanonails (Kibur Medical Inc.), a device invented to test multiple samples in a single tumor. The dimension of the cylindrical device is 4 mm×820 μm containing 18 reservoirs 200 μm wide and 250 μm deep. The loaded devices were kept at −80° C. until tumor implant. NCG mice (female, 8-12 weeks old) from Charles River were injected subcutaneously with 100 μL of LIXF-575 cells per mouse. The body weight of the mice and caliper measurements of the tumors were performed every 3 days until the tumors reached 300-400 mm^3 (about 12 weeks). Nine mice were used for intra-tumoral implantation. […]

[4] = Cell Cycle, 6 h at IC50 concentration, relative to negative control
[5] = MAP kinase, 6 h at IC50 concentration, relative to negative control
[6] = PI3K pathway, 6 h at IC50 concentration, relative to negative control

Compound: C=C(C)[C@@H]1CCC(C)=C[C@H]1c1c(O)cc(CCCCC)c(C(=O)O)c1O [CBDA, cannabidiolic acid]
- times more water soluble compared to CBD ([1]; CBDA versus its decarboxylated counterpart): about 25,000 times
- water solubility [1]: 17.5 mg/mL (≈ 48.8 mM)

Compound: CCCCCc1cc2c(c(O)c1C(=O)O)-c1cc(C)ccc1C(C)(C)O2 [CBNA, cannabinolic acid]
- IC50 (HepG2 cells [2]): 20 µM
- ΔΔCt VEGFA (HepG2 cells [3]; Angiogenesis, 6 h at IC50 concentration, relative to negative control): −2.861
- ΔΔCt BAX (HepG2 cells [3]; [4]): −1.062
- ΔΔCt BECN1 (HepG2 cells [3]; [4]): −1.7
- ΔΔCt CCND2 (HepG2 cells [3]; [4]): −1.539
- ΔΔCt CCNE1 (HepG2 cells [3]; [4]): −2.445
- ΔΔCt CDK1 (HepG2 cells [3]; [4]): 1.051
- ΔΔCt CDK2 (HepG2 cells [3]; [4]): 1.102
- ΔΔCt MNT (HepG2 cells [3]; [4]): −1.868
- ΔΔCt MITF (HepG2 cells [3]; Drug Resistance, 6 h at IC50 concentration, relative to negative control): −2.367
- downregulation of the ERBB2/HER2 receptor (HepG2 cells [3]; HepG2, 6 hour timeframe): 8 fold
- ΔΔCt ERBB2 (HepG2 cells [3]; [5]): 3.097
- ΔΔCt MAP1LC3A (HepG2 cells [3]; [5]): −1.26
- ΔΔCt MAP2K2 (HepG2 cells [3]; [5]): −1.607
- ΔΔCt RASA1 (HepG2 cells [3]; [5]): −1.904
- ΔΔCt PIK3CA (HepG2 cells [3]; [6]): −1.639
- ΔΔCt PTEN (HepG2 cells [3]; [6]): −1.446
- ΔΔCt SMAD3 (HepG2 cells [3]; TGF signaling, 6 h at IC50 concentration, relative to negative control): 2.577
- cell proliferation (Ki67) in nanonail implanted 575 PDX tumors (PDX tumor model (575)): not significantly affected
